Test results from patent publication US6737383B1, “Herbicidal oxadiazolidines” (priority 1999, dated 2004).

Experiments:
bedstraw = experiment: Test B pre/postemergence bedstraw; type: in vivo, Galium aparine
Procedure, shortened: (§1)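 Herbicidal effect was estimated by eye on a ten-point control scale after plants spent twelve to sixteen days in a greenhouse following soil or foliar treatment. Foliar sprays targeted plants at one to four leaves; all doses were formulated in a non-phytotoxic solvent with surfactant.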

blackgrass = experiment: Test B pre/postemergence blackgrass; type: in vivo, Alopecurus myosuroides
Procedure, shortened: as §1

surinam grass = experiment: Test B pre/postemergence surinam grass; type: in vivo, Brachiaria decumbens
Procedure, shortened: as §1

cocklebur = experiment: Test B pre/postemergence cocklebur; type: in vivo, Xanthium strumarium
Procedure, shortened: as §1

corn = experiment: Test B pre/postemergence corn; type: in vivo, Zea mays
Procedure, shortened: as §1

crabgrass = experiment: Test B pre/postemergence crabgrass; type: in vivo, Digitaria sanguinalis
Procedure, shortened: as §1

pigweed = experiment: Test B pre/postemergence pigweed; type: in vivo, Amaranthus retroflexus
Procedure, shortened: as §1

rape = experiment: Test B pre/postemergence rape; type: in vivo, Brassica napus
Procedure, shortened: as §1

soybean = experiment: Test B pre/postemergence soybean; type: in vivo, Glycine max
Procedure, shortened: as §1

sugar beet = experiment: Test B pre/postemergence sugar beet; type: in vivo, Beta vulgaris
Procedure, shortened: as §1

velvetleaf = experiment: Test B pre/postemergence velvetleaf; type: in vivo, Abutilon theophrasti
Procedure, shortened: as §1

wheat = experiment: Test B pre/postemergence wheat; type: in vivo, Triticum aestivum
Procedure, shortened: as §1

wild oat = experiment: Test B pre/postemergence wild oat; type: in vivo, Avena fatua
Procedure, shortened: as §1

purple nutsedge = experiment: Test B pre/postemergence purple nutsedge; type: in vivo, Cyperus rotundus
Procedure, shortened: as §1

smallflower flatsedge = experiment: Test B flood test smallflower flatsedge; type: in vivo, Cyperus difformis
Procedure, shortened: (§2)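 Each value is a visual injury score relative to controls, with 10 meaning complete control and 0 no effect. Evaluation took place twelve to sixteen days after the 2-leaf-stage plants were treated and kept in the greenhouse.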

bamyardgrass = experiment: Test B flood test barnyardgrass; type: in vivo, Echinochloa crus-galli
Procedure, shortened: as §2

[1] = Postemergence, Rate 62 g/ha, scale 0 to 10, 0 is no effect, 10 is complete control
[2] = Postemergence, Rate 250 g/ha, scale 0 to 10, 0 no effect, 10 complete control
[3] = Postemergence, Rate 1000 g/ha, scale 0 to 10 (0 no effect, 10 complete control)
[4] = Preemergence, Rate 31 g/ha, visual rating, scale 0 to 10 (0 no effect, 10 complete control)
[5] = Preemergence, Rate 62 g/ha, scale 0 to 10, 0 is no effect, 10 is complete control
[6] = Preemergence, Rate 125 g/ha, scale 0 to 10 (0 no effect, 10 complete control)
[7] = Preemergence, Rate 250 g/ha, scale of 0 to 10 where 0 is no effect and 10 is complete control
[8] = Preemergence, Rate 500 g/ha, scale 0 (no effect) to 10 (complete control)
[9] = Rate 31 g/ha, Postemergence, scale 0 to 10
[10] = Rate 125 g/ha, Postemergence, scale 0 to 10, 0 no effect, 10 complete control
[11] = Rate 500 g/ha, Postemergence, 0 to 10 scale (0 no effect, 10 complete control)
[12] = Rate 1000 g/ha, Preemergence, scale 0 to 10 (0 no effect, 10 complete control)
[13] = Rate 125 g/ha, Postemergence section (flood test species), scale 0 to 10, 0 no effect, 10 complete control
[14] = flood test, listed under Postemergence, Rate 250 g/ha, scale 0 to 10, 0 no effect, 10 complete control

Structure (SMILES): Cc1ccccc1-n1c(=O)on(C(=O)N(c2ccc(F)cc2)C(C)C)c1=O [Compound 4]
- Bedstraw plant response rating (bedstraw; [1]): 0
- Bedstraw plant response rating (bedstraw; [2]): 7
- Bedstraw plant response rating (bedstraw; [3]): 8
- Bedstraw plant response rating (bedstraw; [4]): 0
- Plant response rating, Bedstraw (bedstraw; [5]): 0
- Plant response rating, Bedstraw (bedstraw; [6]): 1
- Plant response rating, Bedstraw (bedstraw; [7]): 4
- Bedstraw plant response rating (bedstraw; [8]): 4
- Bedstraw plant response rating (bedstraw; [9]): 0
- Bedstraw plant response rating (bedstraw; [10]): 5
- Bedstraw plant response rating (bedstraw; [11]): 7
- Plant response rating, Bedstraw (bedstraw; [12]): 6
- Blackgrass plant response rating (blackgrass; [1]): 0
- Blackgrass plant response rating (blackgrass; [2]): 5
- Blackgrass plant response rating (blackgrass; [3]): 6
- Blackgrass plant response rating (blackgrass; [4]): 0
- Plant response rating, Blackgrass (blackgrass; [5]): 0
- Plant response rating, Blackgrass (blackgrass; [6]): 6
- Plant response rating, Blackgrass (blackgrass; [7]): 8
- Blackgrass plant response rating (blackgrass; [8]): 8
- Blackgrass plant response rating (blackgrass; [9]): 0
- Blackgrass plant response rating (blackgrass; [10]): 4
- Blackgrass plant response rating (blackgrass; [11]): 6
- Plant response rating, Blackgrass (blackgrass; [12]): 10
- B. signalgrass plant response rating (surinam grass; [1]): 0
- B. signalgrass plant response rating (surinam grass; [2]): 0
- B. signalgrass plant response rating (surinam grass; [3]): 4
- B. signalgrass plant response rating (surinam grass; [4]): 0
- Plant response rating, B. signalgrass (surinam grass; [5]): 0
- Plant response rating, B. signalgrass (surinam grass; [6]): 7
- Plant response rating, B. signalgrass (surinam grass; [7]): 8
- B. signalgrass plant response rating (surinam grass; [8]): 9
- B. signalgrass plant response rating (surinam grass; [9]): 0
- B. signalgrass plant response rating (surinam grass; [10]): 0
- B. signalgrass plant response rating (surinam grass; [11]): 2
- Plant response rating, B. signalgrass (surinam grass; [12]): 10
- Cocklebur plant response rating (cocklebur; [1]): 0
- Cocklebur plant response rating (cocklebur; [2]): 6
- Cocklebur plant response rating (cocklebur; [3]): 8
- Cocklebur plant response rating (cocklebur; [4]): 0
- Plant response rating, Cocklebur (cocklebur; [5]): 0
- Plant response rating, Cocklebur (cocklebur; [6]): 0
- Plant response rating, Cocklebur (cocklebur; [7]): 0
- Cocklebur plant response rating (cocklebur; [8]): 0
- Cocklebur plant response rating (cocklebur; [9]): 0
- Cocklebur plant response rating (cocklebur; [10]): 2
- Cocklebur plant response rating (cocklebur; [11]): 6
- Plant response rating, Cocklebur (cocklebur; [12]): 0
- Corn plant response rating (corn; [1]): 0
- Corn plant response rating (corn; [2]): 0
- Corn plant response rating (corn; [3]): 0
- Corn plant response rating (corn; [4]): 0
- Plant response rating, Corn (corn; [5]): 0
- Plant response rating, Corn (corn; [6]): 0
- Plant response rating, Corn (corn; [7]): 0
- Corn plant response rating (corn; [8]): 0
- Corn plant response rating (corn; [9]): 0
- Corn plant response rating (corn; [10]): 0
- Corn plant response rating (corn; [11]): 0
- Plant response rating, Corn (corn; [12]): 0
- Crabgrass plant response rating (crabgrass; [1]): 0
- Crabgrass plant response rating (crabgrass; [2]): 8
- Crabgrass plant response rating (crabgrass; [3]): 8
- Crabgrass plant response rating (crabgrass; [4]): 3
- Plant response rating, Crabgrass (crabgrass; [5]): 3
- Plant response rating, Crabgrass (crabgrass; [6]): 10
- Plant response rating, Crabgrass (crabgrass; [7]): 10
- Crabgrass plant response rating (crabgrass; [8]): 10
- Crabgrass plant response rating (crabgrass; [9]): 0
- Crabgrass plant response rating (crabgrass; [10]): 5
- Crabgrass plant response rating (crabgrass; [11]): 8
- Plant response rating, Crabgrass (crabgrass; [12]): 10
- Redroot pigweed plant response rating (pigweed; [1]): 0
- Redroot pigweed plant response rating (pigweed; [2]): 5
- Redroot pigweed plant response rating (pigweed; [3]): 8
- Redroot pigweed plant response rating (pigweed; [4]): 0
- Plant response rating, Redroot pigweed (pigweed; [5]): 2
- Plant response rating, Redroot pigweed (pigweed; [6]): 5
- Plant response rating, Redroot pigweed (pigweed; [7]): 8
- Redroot pigweed plant response rating (pigweed; [9]): 0
- Redroot pigweed plant response rating (pigweed; [10]): 4
- Redroot pigweed plant response rating (pigweed; [11]): 7
- Plant response rating, Redroot pigweed (pigweed; [12]): 8
- Rape plant response rating (rape; [1]): 0
- Rape plant response rating (rape; [2]): 0
- Rape plant response rating (rape; [3]): 3
- Rape plant response rating (rape; [4]): 0
- Plant response rating, Rape (rape; [5]): 0
- Plant response rating, Rape (rape; [6]): 0
- Plant response rating, Rape (rape; [7]): 6
- Rape plant response rating (rape; [8]): 0
- Rape plant response rating (rape; [9]): 0
- Rape plant response rating (rape; [10]): 0
- Rape plant response rating (rape; [11]): 2
- Plant response rating, Rape (rape; [12]): 3
- Soybean plant response rating (soybean; [1]): 2
- Soybean plant response rating (soybean; [2]): 4
- Soybean plant response rating (soybean; [3]): 5
- Soybean plant response rating (soybean; [4]): 0
- Plant response rating, Soybean (soybean; [5]): 0
- Plant response rating, Soybean (soybean; [6]): 0
- Plant response rating, Soybean (soybean; [7]): 0
- Soybean plant response rating (soybean; [8]): 0
- Soybean plant response rating (soybean; [10]): 4
- Plant response rating, Soybean (soybean; [12]): 1
- Sugarbeets plant response rating (sugar beet; [1]): 0
- Sugarbeets plant response rating (sugar beet; [2]): 3
- Sugarbeets plant response rating (sugar beet; [3]): 4
- Sugarbeets plant response rating (sugar beet; [4]): 0
- Plant response rating, Sugarbeets (sugar beet; [5]): 0
- Plant response rating, Sugarbeets (sugar beet; [6]): 7
- Plant response rating, Sugarbeets (sugar beet; [7]): 8
- Sugarbeets plant response rating (sugar beet; [8]): 3
- Sugarbeets plant response rating (sugar beet; [10]): 2
- Plant response rating, Sugarbeets (sugar beet; [12]): 4
- Velvetleaf plant response rating (velvetleaf; [1]): 0
- Velvetleaf plant response rating (velvetleaf; [2]): 3
- Velvetleaf plant response rating (velvetleaf; [3]): 7
- Velvetleaf plant response rating (velvetleaf; [4]): 0
- Plant response rating, Velvetleaf (velvetleaf; [5]): 0
- Plant response rating, Velvetleaf (velvetleaf; [6]): 0
- Plant response rating, Velvetleaf (velvetleaf; [7]): 0
- Velvetleaf plant response rating (velvetleaf; [8]): 0
- Velvetleaf plant response rating (velvetleaf; [10]): 3
- Plant response rating, Velvetleaf (velvetleaf; [12]): 0
- Wheat plant response rating (wheat; [1]): 0
- Wheat plant response rating (wheat; [2]): 0
- Wheat plant response rating (wheat; [3]): 0
- Wheat plant response rating (wheat; [4]): 0
- Plant response rating, Wheat (wheat; [5]): 0
- Plant response rating, Wheat (wheat; [6]): 0
- Plant response rating, Wheat (wheat; [7]): 0
- Wheat plant response rating (wheat; [8]): 0
- Wheat plant response rating (wheat; [10]): 0
- Plant response rating, Wheat (wheat; [12]): 0
- Wild oats plant response rating (wild oat; [1]): 0
- Wild oats plant response rating (wild oat; [2]): 0
- Wild oats plant response rating (wild oat; [3]): 0
- Wild oats plant response rating (wild oat; [4]): 0
- Plant response rating, Wild oats (wild oat; [6]): 0
- Plant response rating, Wild oats (wild oat; [7]): 4
- Wild oats plant response rating (wild oat; [8]): 7
- Wild oats plant response rating (wild oat; [10]): 0
- Plant response rating, Wild oats (wild oat; [12]): 8
- Nutsedge plant response rating (purple nutsedge; [1]): 0
- Nutsedge plant response rating (purple nutsedge; [2]): 0
- Nutsedge plant response rating (purple nutsedge; [3]): 0
- Nutsedge plant response rating (purple nutsedge; [4]): 0
- Plant response rating, Nutsedge (purple nutsedge; [5]): 0
- Plant response rating, Nutsedge (purple nutsedge; [6]): 0
- Plant response rating, Nutsedge (purple nutsedge; [7]): 0
- Nutsedge plant response rating (purple nutsedge; [8]): 0
- Nutsedge plant response rating (purple nutsedge; [9]): 0
- Nutsedge plant response rating (purple nutsedge; [10]): 0
- Nutsedge plant response rating (purple nutsedge; [11]): 0
- Plant response rating, Nutsedge (purple nutsedge; [12]): 0
- S. Flatsedge plant response rating (smallflower flatsedge; [1]): 0
- S. Flatsedge plant response rating (smallflower flatsedge; [3]): 4
- S. Flatsedge plant response rating (smallflower flatsedge; [13]): 0
- S. Flatsedge plant response rating (smallflower flatsedge; [14]): 2
- Barnyardgrass plant response rating (bamyardgrass; [1]): 0
- Barnyardgrass plant response rating (bamyardgrass; [3]): 4
- Barnyardgrass plant response rating (bamyardgrass; Rate 31 g/ha, Postemergence section (flood test species), scale 0 to 10): 0
- Barnyardgrass plant response rating (bamyardgrass; [13]): 0
- Barnyardgrass plant response rating (bamyardgrass; Rate 500 g/ha, Postemergence section of Table B, 0 to 10 scale (0 no effect, 10 complete control)): 4
- Barnyardgrass plant response rating (bamyardgrass; [14]): 3
